Columns and labels:
[1] = tested on: MCF-7 (breast cancer cell line); assay: Antiproliferative assay, MCF-7; assay type: cell-based; conditions: Homo sapiens, MCF7; read-out: Antiproliferative activity IC50 ± SEM, MCF-7
Description: (§1) See Supplementary Appendix S1A.
(§2) DMSO (0.1%) was used as control.

[2] = tested on: four cancer cell lines (A-549, MCF-7, Panc-1, HT-29); assay: Antiproliferative assay, average over the four cancer cell lines (GI50); conditions: for Fold less potent than the reference doxorubicin (GI50): mean GI50 compared with doxorubicin; for IC50: read-out: Antiproliferative activity IC50, Average (mean GI50)
Protocol: (§4) The IC50 of each compound was calculated using doxorubicin as the reference.
(§5) To explore the antiproliferative potential of compounds MTT assay was performed according to previously reported procedure using different cell lines to explore the antiproliferative potential of compounds propidium iodide fluorescence assay was performed using different cell lines. To calculate the total nuclear DNA, a fluorescent dye (propidium iodide, PI) is used which can attach to the DNA, thus offering a quick and precise technique. PI cannot pass through the cell membrane and its signal intensity can be considered as directly proportional to quantity of cellular DNA. Cells whose cell membranes are damaged or have changed permeability are counted as dead ones. The assay was performed by seeding the cells of different cell lines at a density of 3000-7500 cells/well (in 200µl medium) in culture plates followed by incubation for 24h at 37 °C in humidified 5% CO2/95% air atmospheric conditions. The medium was removed; the compounds were added to the plates at 10 µM concentrations (in 0.1% DMSO) in triplicates, followed by incubation for 48 h. DMSO (0.1%) was used as control. After incubation, medium was removed followed by the addition of PI (25 µl, 50µg/mL in water/medium) to each well of the plates. At -80 °C, the plates were allowed to freeze for 24 h, followed by thawing at 25 °C. A fluorometer (Polar-Star BMG Tech) was used to record the readings at excitation and emission wavelengths of 530 and 620 nm for each well. The percentage cytotoxicity of compounds was calculated using the following formula:

[3] = tested on: HT-29 (colon cancer cell line); assay: Antiproliferative assay, HT-29; conditions: Homo sapiens, HT-29, read-out: Antiproliferative activity IC50 ± SEM, HT-29
Protocol: as §4, §5

[4] = tested on: A-549 (epithelial cancer cell line); assay: Antiproliferative assay, A-549; assay type: cell-based; conditions: Homo sapiens, A549; read-out: Antiproliferative activity IC50 ± SEM, A-549
Description: as §1, §2

[5] = tested on: Panc-1 (pancreas cancer cell line); assay: Antiproliferative assay, Panc-1; assay type: cell-based; conditions: Homo sapiens, read-out: Antiproliferative activity IC50 ± SEM, Panc-1
Description: as §1, §2

[6] = Cell viability assay (MTT) on normal cell line; assay type: cell-based; conditions: human, MCF-10A mammary epithelial cells, 50 µM of compound;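 note: values are percent cell viability not percent inhibition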
Protocol: To study the effect of 4a-l and 5a-c on normal cell lines, a cell viability assay was done using the MCF-10A (human mammary gland epithelial) cell line ([Abdelbaset et al., 2019]; [Al-Wahaibi et al., 2020]). This study uses a concentration of 50 µM of the investigated compound for 4 days, after which cell viability is evaluated.
To study the effect of 4a-l and 5a-c on normal cell lines, a cell viability assay was done using the MCF-10A (human mammary gland epithelial) cell line ([Abdelbaset et al., 2019]; [Al-Wahaibi et al., 2020]). See Supplementary Appendix S1A.
MTT assay was carried out to study the effect of compounds on mammary epithelial cells (MCF-10A). The medium in which cells were propagated contained Dulbecco's modified Eagle's medium (DMEM)/ Ham's F-12 medium (1:1) supplemented with epidermal growth factor (20 ng/mL), hydrocortisone (500 ng/mL), insulin (10 μg/mL), 2 mM glutamine and 10% fetal calf serum. After every 2-3 days, the cells were passaged using trypsin ethylenediamine tetra acetic acid (EDTA). The cells were seeded at a density of 10^4 cells mL^-1 in flat-bottomed culture plates containing 96 wells each. After 24 h, medium was removed from the plates and the compounds in (in 0.1% DMSO) were added (in 200 μL medium to yield a final concentration of 0.1% v/v) to the wells of plates. A single compound was designated with four wells followed by incubation of plates for 96h at 37°C. After incubation, medium was removed completely from the plates followed by addition of MTT (0.4 mg/mL in medium) to each well and subsequent incubation of plates for 3h. MTT (along with the medium) was removed and DMSO (150μL) was added to each well of the culture plates, followed by vortexing and subsequent measurement of absorbance (at 540 nm) using microplate reader. The data are shown as percentage inhibition of proliferation in comparison with controls containing 0.1% DMSO.

[7] = target: T1, recombinant human DNA topo I (Homo sapiens, UniProt P11387); assay: Topo I inhibitory assay (pBR322 relaxation); assay type: biochemical
T1 construct: purchased Topo GEN INC., USA
T1 sequence (P11387 1-765): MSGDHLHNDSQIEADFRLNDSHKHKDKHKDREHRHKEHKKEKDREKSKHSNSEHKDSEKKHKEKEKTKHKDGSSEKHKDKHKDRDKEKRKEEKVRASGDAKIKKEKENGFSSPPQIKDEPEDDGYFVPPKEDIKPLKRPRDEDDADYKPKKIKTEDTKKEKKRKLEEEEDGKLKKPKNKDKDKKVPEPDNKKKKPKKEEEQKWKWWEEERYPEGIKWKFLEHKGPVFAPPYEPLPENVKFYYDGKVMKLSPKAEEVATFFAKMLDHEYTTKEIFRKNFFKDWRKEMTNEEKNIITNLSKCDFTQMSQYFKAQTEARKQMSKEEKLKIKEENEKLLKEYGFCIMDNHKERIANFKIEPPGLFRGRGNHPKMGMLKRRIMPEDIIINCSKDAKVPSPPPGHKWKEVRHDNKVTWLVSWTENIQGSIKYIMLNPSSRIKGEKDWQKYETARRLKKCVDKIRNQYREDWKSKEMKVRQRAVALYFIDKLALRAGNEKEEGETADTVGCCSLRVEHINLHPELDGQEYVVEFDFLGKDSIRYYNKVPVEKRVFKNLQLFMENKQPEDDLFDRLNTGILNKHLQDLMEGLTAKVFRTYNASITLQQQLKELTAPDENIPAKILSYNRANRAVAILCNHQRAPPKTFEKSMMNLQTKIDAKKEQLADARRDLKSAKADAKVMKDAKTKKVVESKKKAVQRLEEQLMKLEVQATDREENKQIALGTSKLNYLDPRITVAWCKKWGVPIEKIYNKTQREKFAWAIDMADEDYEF
Protocol: (§3) All the tested compounds were dissolved in DMSO and the DNA topoisomerase I and II inhibitory activity of each compound was measured as follows according to previously reported methods. Mixture comprising of 100 ng supercoiled pBR322 plasmid DNA (Thermo Scientific, USA) and 0.2 ~ 1 unit of recombinant human DNA topo I (Topo GEN INC., USA) or topo IIα (USB Corp., USA) was incubated with or without the prepared compounds in the assay buffer (For topo I, 10 mM Tris-HCl (pH 7.9), 150 mM NaCl and 0.1% BSA, 0.1 mM spermidine and 5% glycerol; for topo II, 10 mM Tris-HCl (pH 7.9), 50 mM NaCl, 50 mM KCl, 5 mM MgCl2, 1 mM EDTA, 1 mM ATP and […] BSA) for 30 min at 37 ◦C. The reaction with final volume of 10 μL was stopped by adding the topo stop buffer (For topo I, 10% SDS solution containing 0.2% bromophenol blue, 0.2% xylene cyanol and 30% glycerol; for topo II, 7 mM EDTA). The reaction products were electrophoresed on 0.8% agarose gel at 50 V for 1 h with TAE electrophoresis buffer. The gels were stained in an EtBr solution (0.5 mg/mL) and visualized by transillumination with UV light and were quantitated using Alpha Tech ImagerTM (Alpha Innotech Corp., USA).

topo IIα = target: T2, topo IIα (Homo sapiens, UniProt P11388); assay: Topo IIα inhibitory assay (pBR322 relaxation); assay type: biochemical
T2 construct: purchased USB Corp., USA
Protocol: as §3

T2 sequence (P11388 whole entry): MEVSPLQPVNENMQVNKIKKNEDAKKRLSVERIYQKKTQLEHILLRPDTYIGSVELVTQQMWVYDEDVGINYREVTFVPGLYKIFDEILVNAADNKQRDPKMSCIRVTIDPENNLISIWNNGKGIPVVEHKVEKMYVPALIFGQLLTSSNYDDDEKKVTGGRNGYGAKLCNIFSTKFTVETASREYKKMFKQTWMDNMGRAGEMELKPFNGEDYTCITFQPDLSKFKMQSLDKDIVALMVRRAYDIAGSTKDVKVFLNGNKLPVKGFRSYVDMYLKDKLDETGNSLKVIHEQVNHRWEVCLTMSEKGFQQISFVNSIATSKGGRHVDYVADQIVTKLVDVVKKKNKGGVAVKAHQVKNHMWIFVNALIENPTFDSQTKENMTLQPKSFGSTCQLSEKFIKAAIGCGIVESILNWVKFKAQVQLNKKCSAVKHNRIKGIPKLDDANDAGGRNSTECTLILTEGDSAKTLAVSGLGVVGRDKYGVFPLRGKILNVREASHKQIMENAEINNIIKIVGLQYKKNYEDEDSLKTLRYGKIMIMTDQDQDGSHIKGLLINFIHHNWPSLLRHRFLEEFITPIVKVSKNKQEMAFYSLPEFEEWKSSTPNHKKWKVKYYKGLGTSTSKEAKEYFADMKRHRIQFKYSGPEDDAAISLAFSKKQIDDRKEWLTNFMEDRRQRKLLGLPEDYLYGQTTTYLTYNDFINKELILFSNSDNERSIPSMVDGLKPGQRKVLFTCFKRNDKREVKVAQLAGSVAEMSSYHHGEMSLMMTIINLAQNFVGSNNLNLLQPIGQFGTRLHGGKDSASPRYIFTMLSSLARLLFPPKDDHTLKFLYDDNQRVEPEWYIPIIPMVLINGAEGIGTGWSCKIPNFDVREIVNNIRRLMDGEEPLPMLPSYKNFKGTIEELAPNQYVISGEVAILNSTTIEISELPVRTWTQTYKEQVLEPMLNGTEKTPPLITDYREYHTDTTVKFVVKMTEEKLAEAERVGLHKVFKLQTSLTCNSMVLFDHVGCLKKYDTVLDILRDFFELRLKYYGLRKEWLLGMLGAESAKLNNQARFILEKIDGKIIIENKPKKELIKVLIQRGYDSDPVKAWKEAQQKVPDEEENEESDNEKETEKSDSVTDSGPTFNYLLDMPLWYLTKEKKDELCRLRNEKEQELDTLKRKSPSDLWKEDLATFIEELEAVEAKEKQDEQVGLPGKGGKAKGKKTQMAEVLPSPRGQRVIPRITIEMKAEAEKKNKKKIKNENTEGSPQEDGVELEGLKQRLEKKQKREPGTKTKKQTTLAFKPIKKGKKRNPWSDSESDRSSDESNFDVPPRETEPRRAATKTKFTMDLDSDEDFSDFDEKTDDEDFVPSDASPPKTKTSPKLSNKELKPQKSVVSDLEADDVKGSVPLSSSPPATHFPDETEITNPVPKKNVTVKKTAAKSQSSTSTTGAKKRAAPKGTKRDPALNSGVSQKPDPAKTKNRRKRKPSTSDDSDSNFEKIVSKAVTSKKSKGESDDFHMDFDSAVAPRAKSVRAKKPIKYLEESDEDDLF

Row | IC50 [1] [µM] | Fold less potent than the reference doxorubicin (GI50) [2] | IC50 [2] [µM] | IC50 [3] [µM] | IC50 [4] [µM] | IC50 [5] [µM] | melting point [°C] | inhibition at 100 µM (topo IIα) [%] | inhibition at 20 µM (topo IIα) [%] | SMILES | viability at 4 days, 50 µM [6] [%] | inhibition at 20 µM [7] [%] | inhibition at 100 µM [7] [%]
1 | 7.1 ± 0.7 | at least 6 fold | 7.3 | 7.2 ± 0.7 | 7.6 ± 0.7 | 7.4 ± 0.7 |  |  |  | Cn1c(=O)cc(/N=C(\C2CCCC2)N2CCOCC2)c2ccccc21 [Compound 4l, (E) 4-((Cyclopentyl(morpholino)methylene)amino)-1-methylquinolin-2(1H)-one] | 89 |  | 
2 | 0.8 ± 0.1 |  | 1 | 1.1 ± 0.1 | 1.1 ± 0.1 | 0.9 ± 0.1 | 342 | 23.8 |  | Cn1c(=O)cc(/N=C(\C2CCCC2)N2CCN(/C(=N/c3cc(=O)n(C)c4ccccc34)C3CCCC3)CC2)c2ccccc21 [Compound 5c, 4,4'-((1E,1′E)-(piperazine-1,4-diylbis(cyclopentylmethanylylidene))bis(azanylylid-ene))bis(1-methylquinolin-2(1H)-one)] | 89 | 46.7 | 84.8
3 | 4.7 ± 0.4 |  | 5 | 5.1 ± 0.3 | 5.15 ± 0.3 | 4.9 ± 0.3 | 360 |  |  | O=c1cc(/N=C(\C2CCCC2)N2CCN(/C(=N/c3cc(=O)[nH]c4ccccc34)C3CCCC3)CC2)c2ccccc2[nH]1 [Compound 5a, 4,4'-((1E,1′E)-(piperazine-1,4-diylbis(cyclopentylmethanylylidene))bis(azanylylid-ene))bis(quinolin-2(1H)-one)] | 91 |  | 
4 |  |  |  |  |  |  |  | 83.7 | 66 | COc1cc([C@@H]2c3cc4c(cc3[C@@H](O[C@@H]3O[C@@H]5CO[C@@H](C)O[C@H]5[C@H](O)[C@H]3O)[C@H]3COC(=O)[C@H]23)OCO4)cc(OC)c1O [Etoposide, reference compound] |  |  | 
5 | 1.9 ± 0.2 |  | 2.1 | 2.2 ± 0.2 | 2.3 ± 0.2 | 2.05 ± 0.2 | 250 |  |  | COc1ccc2[nH]c(=O)cc(/N=C(\C3CCCC3)N3CCCCC3)c2c1 [Compound 4c, (E) 4-((Cyclopentyl(piperidin-1-yl)methylene)amino)-6-methoxyquinolin-2(1H)-one] | 91 |  | 
6 | 5.1 ± 0.5 |  | 5.5 | 5.5 ± 0.5 | 5.9 ± 0.5 | 5.4 ± 0.5 | 210 |  |  | O=c1cc(/N=C(\C2CCCC2)N2CCCCC2)c2ccccc2[nH]1 [Compound 4a, (E) 4-((Cyclopentyl(piperidin-1-yl)methylene)amino)quinolin-2(1H)-one] | 85 |  | 
7 | 1.9 ± 0.2 |  | 2.3 | 2.3 ± 0.2 | 2.6 ± 0.2 | 2.3 ± 0.2 | 226 |  |  | Cc1ccc2[nH]c(=O)cc(/N=C(\C3CCCC3)N3CCOCC3)c2c1 [Compound 4h, (E) 4-((Cyclopentyl(morpholino)methylene)amino)-6-methylquinolin-2(1H)-one] | 91 |  | 
8 | 0.9 ± 0.1 |  | 1.1 | 1 ± 0.1 | 1.2 ± 0.1 | 1.4 ± 0.2 |  |  |  | COc1cccc2c1C(=O)c1c(O)c3c(c(O)c1C2=O)C[C@@](O)(C(=O)CO)C[C@@H]3O[C@H]1C[C@H](N)[C@H](O)[C@H](C)O1 [Doxorubicin, reference compound] |  |  | 
9 | 4.05 ± 0.4 |  | 4.2 | 4.1 ± 0.4 | 4.6 ± 0.4 | 4.2 ± 0.4 | 220 |  |  | Cc1cccc2c(/N=C(\C3CCCC3)N3CCOCC3)cc(=O)[nH]c12 [Compound 4k, (E) 4-((Cyclopentyl(morpholino)methylene)amino)-8-methylquinolin-2(1H)-one] | 91 |  | 
10 | 3.7 ± 0.3 |  | 3.9 | 3.8 ± 0.3 | 4.1 ± 0.3 | 3.9 ± 0.3 | 355 |  |  | Cc1ccc2[nH]c(=O)cc(/N=C(\C3CCCC3)N3CCN(/C(=N/c4cc(=O)[nH]c5ccc(C)cc45)C4CCCC4)CC3)c2c1 [Compound 5b, 4,4'-((1E,1′E)-(piperazine-1,4-diylbis(cyclopentylmethanylylidene))bis(azanylylid-ene))bis(6-methylquinolin-2(1H)-one)] | 91 |  | 
11 |  |  |  |  |  |  |  |  |  | CC[C@@]1(O)C(=O)OCc2c1cc1n(c2=O)Cc2cc3ccccc3nc2-1 [Camptothecin, reference compound] |  | 40 | 82.6
12 | 2.9 ± 0.3 |  | 3.3 | 3.5 ± 0.3 | 3.7 ± 0.3 | 3.1 ± 0.3 | 247 |  |  | O=c1cc(/N=C(\C2CCCC2)N2CCOCC2)c2cc(Cl)ccc2[nH]1 [Compound 4j, (E) 4-((Cyclopentyl(morpholino)methylene)amino)-6-chloroquinolin-2(1H)-one] | 89 |  | 
13 | 7.5 ± 0.8 |  | 7.8 | 7.7 ± 0.8 | 8 ± 0.8 | 7.9 ± 0.8 | 142 |  |  | Cn1c(=O)cc(/N=C(\C2CCCC2)N2CCCCC2)c2ccccc21 [Compound 4f, (E) 4-((Cyclopentyl(piperidin-1-yl)methylene)amino)-1-methylquinolin-2(1H)-one] | 87 |  | 
14 | 5.9 ± 0.6 | at least 6 fold | 6.1 | 6.2 ± 0.6 | 6.3 ± 0.6 | 6.1 ± 0.6 |  |  |  | O=c1cc(/N=C(\C2CCCC2)N2CCOCC2)c2ccccc2[nH]1 [Compound 4g, (E) 4-((Cyclopentyl(morpholino)methylene)amino)quinolin-2(1H)-one] | 89 |  | 

From paper PMC9716094, “Synthesis of novel amidines via one-pot three component reactions: Selective topoisomerase I inhibitors with antiproliferative properties” (Frontiers in Chemistry, 2022)
